This is an account of results in patent US7708990B2, “Coenzyme Q compositions persisting in blood” (Kaneka Corporation, priority 2004, dated 2010).

The nature of the data set: Plasma coenzyme Q10 levels after oral administration to rats (HPLC assay). The format is in vivo, male SD strain rats. To be noted: plasma coenzyme Q10 (reduced + oxidized), oral 100 mg/kg in soybean oil. On the procedure: A solution of reduced coenzyme Q10 (containing 1% by weight of oxidized coenzyme Q10) in soybean oil (reduced coenzyme Q10/soybean oil solution=20 mg/ml) was orally administered to male SD strain rats (6 weeks of age) at a dose of reduced coenzyme Q10 (containing 1% by weight of oxidized coenzyme Q10) of 100 mg/kg and, after 0.5, 1, 2, 3, 4, 5, 6, 8, 12 and 24 hours after administration, blood samples were collected and used for assaying plasma coenzyme Q10 (reduced coenzyme Q10 and oxidized coenzyme Q10) (n=4). Plasma coenzyme Q10 was assayed by HPLC. Thus, coenzyme Q7 (0.003 mg), ethanol (1 ml), distilled water (1 ml) and ferric chloride (0.01%) were added to each rat plasma sample (0.2 ml) and, after mixing up, hexane (3 ml) was added thereto and coenzyme Q10 was extracted with shaking. […]
Reduced coenzyme Q10 (containing 3% by weight of oxidized coenzyme Q10) was administered in the same manner as in Example 1, and plasma coenzyme Q10 levels were determined.
Oxidized coenzyme Q10 was administered in the same manner as in Example 1, and plasma coenzyme Q10 levels were determined.
Reduced coenzyme Q10 (containing 5% by weight of oxidized coenzyme Q10) was administered in the same manner as in Example 1, and plasma coenzyme Q10 levels were determined.

Structures are written as SMILES.

As for `COC1=C(OC)C(=O)C(C/C=C(\C)CC/C=C(\C)CC/C=C(\C)CC/C=C(\C)CC/C=C(\C)CC/C=C(\C)CC/C=C(\C)CC/C=C(\C)CC/C=C(\C)CCC=C(C)C)=C(C)C1=O` [Comparative Example 1, Oxidized coenzyme Q10], under “n=4”, the Cmax (commonly the highest concentration seen after dosing) stood at 1730 ng/mL. Further, the AUC (commonly concentration integrated over time) (n=4, sampling up to 24 hours) turned out to be 12900 ng·h/mL.
